Experimental data from patent US10501552B2, “Multivalent molecules comprising DR5-binding domains” (MacroGenics, Inc., priority 2015, dated 2019).

Assays:
[1] = target: cynomolgus monkey DR5 (His-tagged); experiment: Biacore analysis of binding kinetics; design: ka / kd: unit not given here; conditions: tested as DR5×CD3 mAb 2 diabody
Protocol: Bispecific DR5×CD3 diabodies were incubated with His-tagged DR5 and the kinetics of binding was determined via Biacore analysis. […] FIG. 6, Panels A-D show the results for human DR5. FIG. 6, Panels E-H show the results for cynomolgus monkey DR5.

[2] = test system: astrocytoma and leukemia cells; conditions: cited from earlier work
[3] = test system: engrafted breast cancer cells; conditions: cited from earlier work
histidine tagged TRAIL = histidine tagged TRAIL (Homo sapiens, UniProt P50591); experiment: binding to TRAIL-His coat; conditions: 2 μg/mL biotinylated; 1 μg/mL TRAIL-His coat
Protocol: The amount of immobilized biotinylated antibody was assessed.

[4] = a few patients; higher doses (20 mg per kg); cited from earlier work
DU145 = experiment: […]-GLO cell viability assay with vorinostat; format: cell-based, human; conditions: DU145 (Prostate); 1 μg/ml + 10 μM Vorinostat
SKOV3 = experiment: […]-GLO cell viability assay with vorinostat; format: cell-based; conditions: SKOV3 (Ovary); 1 μg/ml + 1 μM Vorinostat
COLO205 = experiment: […]-GLO cell viability assay with vorinostat; format: cell-based; conditions: for Average % Ctrl: one day
Protocol: For the first study COLO205 cells were plated at 2×10^4 cells/well (in 96-well plates), and incubated overnight in F12/DMEM media supplemented with 10% FBS. […] Cell viability was determined using Promega […]-GLO® Luminescent Cell Viability Assay (Cat # G5430) essentially as described in the manufacturer's instructions to assay the amount of ATP present, which is a measure of the number of viable cells in the culture. Briefly, an […]-GLO® Reagent was added to the wells and mixed for two minutes to induce lysis and the luminescence was read in a in PerkinElmer EnVision multilabel plate reader.
Cell viability of cells treated with the test articles is normalized to the corresponding negative control (medium±vorinostat) which is set to 100% and reported in Table 12 as % of control for each test agent alone or % control for each test agent in combination with vorinostat. % of control values less than 100% indicate a reduction in viability and reflect the cytotoxicity of the test article alone or in combination with vorinostat.
The Net Gain (Average % Growth Inhibition)=% Medium Ctrl (10% FBS)−% Medium Ctrl (1/10 μM vorinostat), and represents increased cytotoxicity of the test article in combination with vorinostat over cells treated with vorinostat alone.

ES2 = experiment: […]-GLO cell viability assay with vorinostat; format: cell-based; conditions: ES2 (Ovary); 1 μg/ml + 10 μM Vorinostat
Hs746T = experiment: […]-GLO cell viability assay with vorinostat; format: cell-based; conditions: Hs746T (Stomach); 1 μg/ml + 10 μM Vorinostat
MCF7 = experiment: […]-GLO cell viability assay with vorinostat; format: cell-based; conditions: MCF7 (Breast); 1 μg/ml + 10 μM Vorinostat
SKBR3 = experiment: […]-GLO cell viability assay with vorinostat; format: cell-based, human; conditions: SKBR3 (Breast); 1 μg/ml + 1 μM Vorinostat
HPAFII = experiment: […]-GLO cell viability assay with vorinostat; format: cell-based; conditions: HPAFII (Pancreas); 1 μg/ml + 10 μM Vorinostat
LNCap = experiment: […]-GLO cell viability assay with vorinostat; format: cell-based, human; conditions: LNCap (Prostate); 1 μg/ml + 10 μM Vorinostat
AsPC1 = experiment: […]-GLO cell viability assay with vorinostat; format: cell-based; conditions: AsPC1 (Pancreas); 1 μg/ml + 1 μM Vorinostat
786O = experiment: […]-GLO cell viability assay with vorinostat; format: cell-based; conditions: 786O (Kidney); 1 μg/ml + 1 μM Vorinostat
A549 = experiment: […]-GLO cell viability assay with vorinostat; format: cell-based, human; conditions: A549 (Lung); 1 μg/ml + 10 μM Vorinostat
Calu3 = experiment: […]-GLO cell viability assay with vorinostat; format: cell-based; conditions: Calu3 (Lung); 1 μg/ml + 1 μM Vorinostat
Hs700T = experiment: […]-GLO cell viability assay with vorinostat; format: cell-based; conditions: Hs700T (Pancreas); 1 μg/ml + 1 μM Vorinostat
NCI-N87 = experiment: […]-GLO cell viability assay with vorinostat; format: cell-based; conditions: NCI-N87 (Stomach); 1 μg/ml + 1 μM Vorinostat
MDA-MB-361 = experiment: […]-GLO cell viability assay with vorinostat; format: cell-based; conditions: MDA-MB-361 (Breast); 1 μg/ml + 10 μM Vorinostat
PC3 = experiment: […]-GLO cell viability assay with vorinostat; format: cell-based; conditions: PC3 (Prostate); 1 μg/ml + 1 μM Vorinostat
MDA-MB-175VII = experiment: […]-GLO cell viability assay with vorinostat; format: cell-based; conditions: MDA-MB-175VII (Breast); 1 μg/ml + 1 μM Vorinostat
BT474 = experiment: […]-GLO cell viability assay with vorinostat; format: cell-based; conditions: BT474 (Breast); 1 μg/ml + 10 μM Vorinostat
22RV1 = experiment: […]-GLO cell viability assay with vorinostat; format: cell-based; conditions: 22RV1 (Prostate); 1 μg/ml + 10 μM Vorinostat
[5] = cited from earlier work

Sequence of histidine tagged TRAIL (P50591 114-281 limits assumed): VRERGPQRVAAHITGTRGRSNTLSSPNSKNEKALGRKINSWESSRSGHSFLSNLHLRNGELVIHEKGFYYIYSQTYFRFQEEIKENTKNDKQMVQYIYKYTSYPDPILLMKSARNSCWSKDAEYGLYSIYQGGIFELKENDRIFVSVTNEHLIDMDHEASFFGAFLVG

In the case of “DR5 mAb 3: drozitumab, known anti-human DR5 antibody; VL SEQ ID NO:54, VH SEQ ID NO:58”, the Kd [1] is reported as 13.3 nM, the ka [1] is reported as 3.3 × 10^6 and the kd [1] is reported as 4.4 × 10^−2.
For “TRA-8/CS-1008: humanized anti-DR5 antibody (Daiichi Sankyo)”, the “antitumor activity in vitro” value [2] is given as “high antitumor activity” and the “antitumor activity in vivo” value [3] is given as “high antitumor activity”.
In the case of “DR5-Fc fusion: human DR5-Fc fusion protein, biotinylated, tested on TRAIL-His coat [reference compound]”, the “amount of immobilized biotinylated antibody” value (histidine tagged TRAIL) is reported as 0.288.
For “lexatumummab: anti-DR5 agonist antibody from Human Genome Sciences”, the hepatotoxicity [4] is given as “Hepatotoxicity with increased serum alanine aminotransferase, aspartate aminotransferase and bilirubin”.
With “R&D TRAIL/His: His-tagged TRAIL (R&D systems) used as a positive control [reference compound]” the “Net Gain (Average % Growth Inhibition)” value (DU145) was 4.57%, the “Net Gain (Average % Growth Inhibition)” value (SKOV3) was 33.93% and the “Average % Ctrl” value (COLO205; Vorinostat 0 μM, % Medium Ctrl (10% FBS), 10 ng/ml tetravalent molecule or 1 μg/ml DR5 mAb) was 68.7%. For the same substance, the “Net Gain (Average % Growth Inhibition)” value (COLO205; Vorinostat 0.1 μM) was 15%, the “Average % Ctrl” value (COLO205; Vorinostat 0.1 μM, normalized to medium + vorinostat) was 54.1% and the “Net Gain (Average % Growth Inhibition)” value (COLO205; Vorinostat 1 μM) was 24%. For the same substance, the “Average % Ctrl” value (COLO205; Vorinostat 1 μM, normalized to medium + vorinostat) was 44.8%, the “Net Gain (Average % Growth Inhibition)” value (ES2) was 79.12% and the “Net Gain (Average % Growth Inhibition)” value (Hs746T) was 31.81%. The “Net Gain (Average % Growth Inhibition)” value (MCF7) was 0.79%, the “Net Gain (Average % Growth Inhibition)” value (SKBR3) was 43.10% and the “Net Gain (Average % Growth Inhibition)” value (HPAFII) was 46.71%. For the same substance, the “Net Gain (Average % Growth Inhibition)” value (LNCap) was 28.73%, the “Net Gain (Average % Growth Inhibition)” value (AsPC1) was 11.86% and the “Net Gain (Average % Growth Inhibition)” value (786O) was 31.16%. For the same substance, the “Net Gain (Average % Growth Inhibition)” value (A549) was 26.71%, the “Net Gain (Average % Growth Inhibition)” value (Calu3) was 9.96% and the “Net Gain (Average % Growth Inhibition)” value (Hs700T) was 15.83%. The “Net Gain (Average % Growth Inhibition)” value (NCI-N87) was 35.97%, the “Net Gain (Average % Growth Inhibition)” value (MDA-MB-361) was 64.85% and the “Net Gain (Average % Growth Inhibition)” value (PC3) was 12.49%. The “Net Gain (Average % Growth Inhibition)” value (MDA-MB-175VII) was 24.17%, the “Net Gain (Average % Growth Inhibition)” value (BT474) was 50.24% and the “Net Gain (Average % Growth Inhibition)” value (22RV1) was 8.91%.
With “DR5 mAb 4: conatumumab, known anti-human DR5 antibody; VL SEQ ID NO:62, VH SEQ ID NO:66” the Kd [1] was 16.4 nM, the ka [1] was 2.5 × 10^6 and the kd [1] was 4.1 × 10^−2.
For “soluble TRAIL: soluble TRAIL preparations”, the in vivo half-life [5] is given as “approximately 30 minutes”.
